Source: patent US20180344725A1, “QUINOLONE CHALCONE COMPOUNDS AND USES THEREOF” (priority 2015, published 2018)

Experiments:
[1] = tested on: H69AR; test: SRB-based cytotoxicity assay; format: cell-based, human; conditions: for Resistance (fold): H69AR versus SW-1271; for IC50: Homo sapiens, H69AR, multidrug-resistant
Method: 1845B5 and MCF-10A non-cancer breast cell lines were cultured in DME/F12 medium supplemented with 10% fetal bovine serum, antibiotics and growth factors. […] The human small cell lung carcinoma H69 cell line and its multidrug-resistant MRP1-overexpressing isogenic H69AR cell line were purchased from ATCC. […] H69 cells grow as large multi-cell aggregates, making it difficult to accurately count cell numbers. […] The IL-6 dependent bortezomib-resistant ANBL6-BR cell line was further supplemented with 1 ng/ml of IL-6. The MCF10AT1 and MCF10CA1a cell lines are isogenic to the MCF10A cell line, and obtained from Dr. Valerie Weaver at the Center for Bioengineering and Tissue Regeneration, UCSF, CA, USA. […] The drug-resistant cells were cultured in the absence of drug for at least one passage before carrying out experiments. All cells were maintained in a humidified incubator at 37° C. […] Cell line authentication was performed using short tandem repeat (STR) profiling. […] Some wells were treated with 100 μl of 10% trichloroacetic acid (TCA) as a negative control and sham (medium with dimethyl sulfoxide; DMSO) treated cells were used as a positive control. […] TCA was removed and cells were washed with cold tap water, and plate was air-dried, followed by addition of 50 μl of 0.4% SRB staining solution to each well. After 30 minutes incubation, SRB staining solution was removed. Cells were washed with 1% acetic acid solution, and then washed with tap water to remove unbound staining solution, followed by air-drying. 200 μl of 10 mM (pH10.5) trizma base buffer was added to each well to solubilise macromolecules. […] Cell growth (inhibition) was calculated by the following formula: % cells proliferation=[(AT-CT)/(ST-CT)]×100 wherein AT=absorbance of treated cells, CT=absorbance of negative control cells, and ST=absorbance of sham treated cells. […] CI values were determined from four independent experiments.

[2] = Toxicology analysis of spleen (H&E); format: in vivo, mice; design: key to Red Pulp (RP): Myeloid elements: ↑↑: Double and single upward arrows indicate highly and moderately increased, respectively; ↑: Double and single upward arrows indicate highly and moderately increased, respectively; conditions: 30 days, Paclitaxel 10 mg/kg, CTR 30 mg/kg, or Tax (5) + CTR (15)
Method: Animals were monitored for food and water consumption every day, and their body weights and tumor volumes were measured twice per week. Tumor volumes were measured with a digital caliper and were determined by using the following formula: ½ length×width^2. Blood samples were collected via cardiac puncture and processed further for ALT and AST measurements. The animals were then immediately euthanized by carbon dioxide. Tumors and vital organs (spleen, kidney, liver and lung) were collected and fixed in 10% buffered formalin at 4° C. overnight before being processed for paraffin embedding. The paraffin-embedded blocks were then cut into 4-5 μm thick sections. Each section of tumors and organs was stained with hematoxylin and eosin (H&E).
Changes in body weight, hemoglobin (Hb) and the amount and ratio of alanine transaminase (ALT)/aspartate transaminase (AST) were used to measure toxic effects. In addition, vital organs (liver, spleen, kidney and lung) were analyzed by […] after they were harvested, fixed, processed, paraffin-embedded, sectioned, and stained as described above.
ATH490 athymic mice were sham-treated (vehicle only) or treated with compounds of the indicated doses for 30 days, followed by toxicity analysis after spleen tissues were H & E stained. The numbers in the brackets are mg per kg of body weight. Arrows indicate the presence of macrophages in the red pulp (RP). Images were taken using a Zeiss EPI-fluorescent microscope (10× objective). Drug administration was carried out as described in Table 11.

[3] = Liver toxicity by AST and ALT; format: in vivo, mice; conditions: serum
Method: For paclitaxel treatments, 40 mg/ml stock solution of paclitaxel (Sigma, MO) was prepared in DMSO. […] Alanine transaminase (ALT, SUP6001-c)/Aspartate transaminase (AST, SUP6002-c) color endpoint assay kits were purchased from ID Labs Biotechnology (London, Ontario, Canada). Elevation of ALT and AST levels in serum samples was used as an indicator of liver damage/injury. Animals were monitored for food and water consumption every day, and their body weights and tumor volumes were measured twice per week. […] Blood samples were collected via cardiac puncture and processed further for ALT and AST measurements. The animals were then immediately euthanized by carbon dioxide. […] The paraffin-embedded blocks were then cut into 4-5 μm thick sections. Each section of tumors and organs was stained with hematoxylin and eosin (H&E). Changes in body weight, hemoglobin (Hb) and the amount and ratio of alanine transaminase (ALT)/aspartate transaminase (AST) were used to measure toxic effects. In addition, vital organs (liver, spleen, kidney and lung) were analyzed by […] after they were harvested, fixed, processed, paraffin-embedded, sectioned, and stained as described above.

[4] = Liver mitotic cells; format: in vivo, mice; conditions: 30 days; 10 mg paclitaxel, 30 mg CTR, or paclitaxel (5 mg) + CTR (15 mg)
Method: ATH490 athymic mice were treated as indicated in the listed concentrations for 30 days (FIG. 45A), and then the liver cell proliferation analyzed by examining the number of mitotic cells (white arrows in FIG. 45A). “Tax” denotes paclitaxel. The numbers in the brackets in (FIG. 45B) are mg/kg body weight. […] However, this small increase is considered normal as the AST/ALT ratio is <3 (Table 14).

[5] = tested on: RPMI-8226BTZR; test: Killing of bortezomib-resistant multiple myeloma cells; format: cell-based
Description: The RPMI-8226BTZR over-expresses β1, β2 and β5 peptides of the 20S subunit. […] However, RPMI-8226BTZR is sensitive to CTR-20, CTR-21 and CTR-32 (FIG. 36).

[6] = Paclitaxel 10 mg/kg, CTR 30 mg/kg, or Paclitaxel (5) + CTR (15)

| Structure (SMILES) | Resistance (fold) [1] [fold] | IC50 [1] [nM] | Capsule [2] | Red Pulp (RP): Myeloid elements [2] | White pulp (WP) [2] | ALT (IU/L) ([3]; CTR 20 mg/kg) | AST (IU/L) ([3]; CTR 20 mg/kg) | ALT (IU/L) [3, 6] [IU/L] | AST (IU/L) [3, 6] [IU/L] | mitotic index in the liver [4] | sensitivity of RPMI-8226BTZR [5] |
| --- | --- | --- | --- | --- | --- | --- | --- | --- | --- | --- | --- |
| COc1ccccc1C(=O)/C=C/c1cc2ccccc2[nH]c1=O [CTR-17, (E)-3-(3-(2-Methoxyphenyl)-3-oxoprop-1-enyl)quinolin-2(1H)-one] | 0.45 | 520 ± 100 | Normal | elements: ↑ | Less but bigger | 63.59 ± 9.73 | 101.00 ± 10.19 | 64.67 ± 5.26 | 114.13 ± 6.36 | small increases in the mitotic index | – |
| COc1ccccc1C(=O)/C=C/c1cc2cccc(OC)c2[nH]c1=O [CTR-21, (E)-8-methoxy-3-(3-(2-methoxyphenyl)-3-oxoprop-1-enyl) quinolin-2(1H)-one] | – | – | – | – | – | – | – | – | – | – | sensitive |
| COc1ccc2[nH]c(=O)c(/C=C/C(=O)c3ccccc3OC)cc2c1 [CTR-20, (E)-6-Methoxy-3-(3-(2-methoxyphenyl)-3-oxoprop-1-enyl) quinolin-2(1H)-one] | 0.13 | 130 ± 10 | Normal | elements: ↑ | Less but bigger | 56.77 ± 5.34 | 119.19 ± 4.03 | 50.50 ± 9.96 | 118.22 ± 17.00 | small increases in the mitotic index | sensitive |
| CCOc1ccccc1C(=O)/C=C/c1cc2ccccc2[nH]c1=O [CTR-32, (E)-3-(3-(2-ethoxyphenyl)-3-oxoprop-1-enyl)quinolin-2(1H)-one] | – | – | – | – | – | – | – | – | – | – | sensitive |
| CC(=O)O[C@H]1C(=O)[C@@]2(C)[C@H]([C@H](OC(=O)c3ccccc3)[C@]3(O)C[C@H](OC(=O)[C@H](O)[C@@H](NC(=O)c4ccccc4)c4ccccc4)C(C)=C1C3(C)C)[C@]1(OC(C)=O)CO[C@@H]1C[C@@H]2O [Paclitaxel, reference compound] | 2.44 | – | Normal | elements: ↑↑^a | Less but bigger | – | – | 52.02 ± 2.59 | 111.14 ± 13.42 | small increases in the mitotic index | – |
